These results are taken from ChEMBL document CHEMBL1201862, “PubChem BioAssay data set” (2004).

Among the test systems are SK-MEL-2; CAKI-1; MOLT-4; HL-60; NCI-H460; RXF 393; HCT-15; KM12; SNB-75; MDA-MB-231; NCI-H522; UO-31; NCI-H226; IGROV-1; SK-MEL-5; M14; T47D; MDA-MB-435; PC-3; OVCAR-3.
Holding throughout (test): NCI-60 cell line screen, 48 h

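How tested: cells in 96-well plates exposed to compound for 48 hours at five concentrations. The concentration for 50% growth inhibition is given as GI50.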 Active and inactive are the calls of the source. Rule as the data show it: active = GI50 up to about 1.1 µM and inactive = higher.

Regarding `CCOC(=O)c1nnsc1NN=C(C)C`, the GI50 in the experiment with SK-MEL-2, with CAKI-1, in the experiment on MOLT-4, in the experiment with HL-60, in the experiment with NCI-H460 and with RXF 393 was > 100 µM (inactive) throughout. Also, the GI50 was more than 100 µM in the experiment with HCT-15; > 100 µM (inactive) with KM12; > 100 µM (inactive) in the experiment with SNB-75; > 100 µM (inactive) in the experiment on MDA-MB-231; > 100 µM (inactive) in the experiment with NCI-H522; > 100 µM (inactive) with UO-31. Also, the GI50 with NCI-H226, in the experiment with IGROV-1, with SK-MEL-5, in the experiment with M14, in the experiment on T47D and with MDA-MB-435 was > 100 µM (inactive) in each case. In addition, the GI50 with PC-3 and in the experiment with OVCAR-3 was > 100 µM (inactive) each time.

On to `CN(CCCNC(=O)c1c2ccc3ccccc3c2nn1C)CCCNC(=O)c1c2ccc3ccccc3c2nn1C`, for which the GI50 was 5.04 µM (inactive) in the experiment with SK-MEL-2; 1.6 µM (inactive) in the experiment on CAKI-1; 4.85 µM (inactive) in the experiment with MOLT-4; 10.4 µM (inactive) in the experiment on HL-60; 4.52 µM (inactive) with NCI-H460; 5.94 µM (inactive) in the experiment with RXF 393. The GI50 with HCT-15 was 6.93 µM; in the experiment on KM12, 8.13 µM (inactive); with SNB-75, 8.2 µM (inactive); with MDA-MB-231 it was 10.5 µM (inactive); in the experiment on NCI-H522 it was 7.35 µM (inactive); in the experiment on UO-31, 6.47 µM (inactive). In addition, the GI50 in the experiment on NCI-H226 was 15.1 µM (inactive); in the experiment with IGROV-1, 8.79 µM (inactive); with SK-MEL-5, 2.23 µM (inactive); with M14, 2.05 µM (inactive); in the experiment on T47D it was 7.62 µM (inactive); with MDA-MB-435 it was 2.29 µM (inactive). Further, the GI50 was 12.4 µM (inactive) in the experiment with PC-3 and 16 µM (inactive) in the experiment with OVCAR-3.

`c1ccc2c(c1)CCN1CCc3c([nH]c4ccccc34)C21` (stereo not given): the GI50 is 23 µM (inactive) with SK-MEL-2; 30.3 µM (inactive) with CAKI-1; 24.5 µM (inactive) in the experiment on MOLT-4; 13.7 µM (inactive) in the experiment on HL-60; 38.7 µM (inactive) in the experiment on NCI-H460; 21.5 µM (inactive) with RXF 393. Besides, the GI50 is 36.9 µM in the experiment on HCT-15; 26.5 µM (inactive) in the experiment on KM12; 24.9 µM (inactive) in the experiment on SNB-75; 35.3 µM (inactive) in the experiment with MDA-MB-231; 34 µM (inactive) in the experiment on NCI-H522; 28.6 µM (inactive) in the experiment with UO-31. The GI50 in the experiment on NCI-H226 is 41.7 µM (inactive); in the experiment on IGROV-1, 29.4 µM (inactive); in the experiment with SK-MEL-5, 15.1 µM (inactive); with M14, 16.7 µM (inactive); with T47D it was 32.5 µM (inactive); in the experiment on MDA-MB-435, 26.7 µM (inactive). The GI50 in the experiment on PC-3 is 26.6 µM (inactive); in the experiment on OVCAR-3 it was 24 µM (inactive).
